Results from PMC7827406, “Structure–Activity Relationship (SAR) Study of Spautin-1 to Entail the Discovery of Novel NEK4 Inhibitors” (International Journal of Molecular Sciences, 2021).
Read-outs that look alike come from different tables or passages of the source.

Key:
Test in all cases: biochemical
Set-up in all cases: Eurofins KinaseProfiler full panel at Km ATP, residual kinase activity (%) relative to DMSO
SGK(h) = target: T1, SGK(h) (Homo sapiens, UniProt O00141)
T1 construct: gene SGK1
T1 sequence (O00141 1-431): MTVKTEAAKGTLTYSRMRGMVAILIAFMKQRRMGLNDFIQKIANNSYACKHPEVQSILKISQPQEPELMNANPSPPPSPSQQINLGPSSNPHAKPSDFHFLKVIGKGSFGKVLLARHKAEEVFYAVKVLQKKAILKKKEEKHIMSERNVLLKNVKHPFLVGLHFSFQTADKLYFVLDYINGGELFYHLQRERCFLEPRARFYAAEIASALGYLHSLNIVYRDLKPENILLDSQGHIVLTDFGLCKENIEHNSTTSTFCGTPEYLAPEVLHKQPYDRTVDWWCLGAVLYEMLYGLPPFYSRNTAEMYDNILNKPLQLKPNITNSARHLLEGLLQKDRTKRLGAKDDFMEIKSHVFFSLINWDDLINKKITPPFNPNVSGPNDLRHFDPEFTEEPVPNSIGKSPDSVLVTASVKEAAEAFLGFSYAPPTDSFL
Method in brief: (§1)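 Radiometric kinase activity assays were run with ATP at Km and compounds at 10 µM, and remaining activity (%) was reported. A separate competitive binding screen measured DNA-tagged kinase displaced from immobilized active-site ligands by qPCR, giving percent kinase still bound at 10 µM compound in DMSO.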

CDK14/cyclinY(h) = CDK14/cyclinY(h) (Homo sapiens, UniProt O94921)
Sequence of CDK14/cyclinY(h) (O94921 whole entry): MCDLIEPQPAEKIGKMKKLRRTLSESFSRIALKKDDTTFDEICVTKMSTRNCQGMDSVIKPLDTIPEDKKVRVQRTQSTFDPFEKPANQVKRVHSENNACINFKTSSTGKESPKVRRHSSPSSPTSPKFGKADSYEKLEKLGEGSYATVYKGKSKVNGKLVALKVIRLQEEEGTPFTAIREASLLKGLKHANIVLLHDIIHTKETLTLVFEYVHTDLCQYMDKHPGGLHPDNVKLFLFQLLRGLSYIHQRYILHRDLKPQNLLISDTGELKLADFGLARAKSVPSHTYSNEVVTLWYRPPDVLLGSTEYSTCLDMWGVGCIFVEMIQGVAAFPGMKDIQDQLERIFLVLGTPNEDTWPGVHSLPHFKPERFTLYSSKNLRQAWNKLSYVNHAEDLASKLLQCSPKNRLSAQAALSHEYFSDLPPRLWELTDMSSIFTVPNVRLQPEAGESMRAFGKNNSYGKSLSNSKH
Sequence of CDK14/cyclinY(h) (Q8ND76 whole entry partner): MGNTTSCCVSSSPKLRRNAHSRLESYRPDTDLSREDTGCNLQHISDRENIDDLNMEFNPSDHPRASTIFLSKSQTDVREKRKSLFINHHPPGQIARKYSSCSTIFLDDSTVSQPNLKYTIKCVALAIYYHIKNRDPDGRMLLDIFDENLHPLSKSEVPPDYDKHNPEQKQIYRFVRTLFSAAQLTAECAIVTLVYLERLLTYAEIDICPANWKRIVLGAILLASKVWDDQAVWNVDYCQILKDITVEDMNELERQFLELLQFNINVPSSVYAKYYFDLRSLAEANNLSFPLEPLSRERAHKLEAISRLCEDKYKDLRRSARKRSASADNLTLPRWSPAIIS
Method in brief: as §1

ULK1(h) = target: T2, ULK1(h) (Homo sapiens, UniProt O75385)
T2 sequence (O75385 1-1050): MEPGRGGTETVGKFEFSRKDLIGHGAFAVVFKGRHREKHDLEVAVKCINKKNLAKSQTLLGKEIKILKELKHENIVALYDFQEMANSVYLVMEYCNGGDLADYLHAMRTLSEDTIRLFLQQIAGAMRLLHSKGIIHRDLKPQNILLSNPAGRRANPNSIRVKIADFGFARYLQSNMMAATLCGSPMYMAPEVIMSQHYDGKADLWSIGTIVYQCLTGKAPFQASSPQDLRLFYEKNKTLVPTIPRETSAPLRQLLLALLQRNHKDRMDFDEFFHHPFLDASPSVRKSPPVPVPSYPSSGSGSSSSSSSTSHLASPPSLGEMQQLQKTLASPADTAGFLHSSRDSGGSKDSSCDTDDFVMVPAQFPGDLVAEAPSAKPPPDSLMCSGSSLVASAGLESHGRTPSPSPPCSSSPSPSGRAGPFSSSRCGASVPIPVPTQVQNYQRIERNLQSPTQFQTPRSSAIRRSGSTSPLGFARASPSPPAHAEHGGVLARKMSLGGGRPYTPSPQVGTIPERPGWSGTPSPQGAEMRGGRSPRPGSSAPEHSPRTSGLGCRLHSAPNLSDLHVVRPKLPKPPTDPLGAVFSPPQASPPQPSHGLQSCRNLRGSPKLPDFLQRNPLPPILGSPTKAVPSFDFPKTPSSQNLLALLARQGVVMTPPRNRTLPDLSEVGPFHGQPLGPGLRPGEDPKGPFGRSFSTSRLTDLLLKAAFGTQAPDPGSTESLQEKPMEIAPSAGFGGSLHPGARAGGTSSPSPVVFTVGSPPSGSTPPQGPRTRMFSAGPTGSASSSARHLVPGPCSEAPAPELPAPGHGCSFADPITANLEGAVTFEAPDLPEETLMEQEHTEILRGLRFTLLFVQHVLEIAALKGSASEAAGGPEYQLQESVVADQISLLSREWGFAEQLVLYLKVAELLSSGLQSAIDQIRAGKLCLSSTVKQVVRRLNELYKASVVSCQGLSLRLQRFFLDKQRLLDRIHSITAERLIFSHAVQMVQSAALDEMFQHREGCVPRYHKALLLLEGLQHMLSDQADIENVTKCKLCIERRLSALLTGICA
Method in brief: as §1

ULK3(h) = target: T3, ULK3(h) (Homo sapiens, UniProt Q6PHR2)
T3 sequence (Q6PHR2 1-472): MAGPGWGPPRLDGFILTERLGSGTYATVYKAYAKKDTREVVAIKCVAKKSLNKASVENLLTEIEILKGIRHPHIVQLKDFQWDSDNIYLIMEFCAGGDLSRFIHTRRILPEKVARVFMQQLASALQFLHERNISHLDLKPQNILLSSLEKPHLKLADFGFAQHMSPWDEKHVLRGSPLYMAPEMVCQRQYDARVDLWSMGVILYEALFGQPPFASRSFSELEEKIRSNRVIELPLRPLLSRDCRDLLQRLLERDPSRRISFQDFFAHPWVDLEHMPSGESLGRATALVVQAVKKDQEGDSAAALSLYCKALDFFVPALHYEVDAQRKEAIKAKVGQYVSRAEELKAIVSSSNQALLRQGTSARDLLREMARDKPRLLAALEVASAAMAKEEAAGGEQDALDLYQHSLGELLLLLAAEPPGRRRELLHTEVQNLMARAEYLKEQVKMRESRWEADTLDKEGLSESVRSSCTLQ
Method in brief: as §1

FGFR3(h) = FGFR3(h) (Homo sapiens, UniProt P22607)
Sequence of FGFR3(h) (P22607 whole entry): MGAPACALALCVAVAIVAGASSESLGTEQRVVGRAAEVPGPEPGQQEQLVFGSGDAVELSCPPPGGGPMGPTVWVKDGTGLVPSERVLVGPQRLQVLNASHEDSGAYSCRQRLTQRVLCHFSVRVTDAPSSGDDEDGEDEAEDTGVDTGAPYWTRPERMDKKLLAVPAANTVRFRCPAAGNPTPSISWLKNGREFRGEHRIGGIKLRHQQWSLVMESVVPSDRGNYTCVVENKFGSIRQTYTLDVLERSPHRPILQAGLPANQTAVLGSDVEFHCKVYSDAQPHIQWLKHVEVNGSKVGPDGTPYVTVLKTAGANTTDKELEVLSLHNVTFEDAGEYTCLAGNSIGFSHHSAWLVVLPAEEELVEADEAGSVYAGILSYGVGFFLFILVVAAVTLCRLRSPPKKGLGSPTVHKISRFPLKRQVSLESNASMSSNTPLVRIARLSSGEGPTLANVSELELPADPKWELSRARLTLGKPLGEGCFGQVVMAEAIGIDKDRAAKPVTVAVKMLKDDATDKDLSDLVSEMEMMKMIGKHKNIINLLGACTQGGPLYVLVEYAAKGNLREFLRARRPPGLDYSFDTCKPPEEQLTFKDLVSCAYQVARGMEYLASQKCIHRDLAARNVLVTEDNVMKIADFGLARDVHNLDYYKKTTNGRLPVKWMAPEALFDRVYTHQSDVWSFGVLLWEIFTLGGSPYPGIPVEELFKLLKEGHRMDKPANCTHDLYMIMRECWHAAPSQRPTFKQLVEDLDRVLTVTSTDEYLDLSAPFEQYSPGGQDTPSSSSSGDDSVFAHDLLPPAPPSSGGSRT
Method in brief: as §1

HRI(h) = target: T4, HRI(h) (Homo sapiens, UniProt Q9BQI3)
T4 construct: gene EIF2AK1
T4 sequence (Q9BQI3 whole entry): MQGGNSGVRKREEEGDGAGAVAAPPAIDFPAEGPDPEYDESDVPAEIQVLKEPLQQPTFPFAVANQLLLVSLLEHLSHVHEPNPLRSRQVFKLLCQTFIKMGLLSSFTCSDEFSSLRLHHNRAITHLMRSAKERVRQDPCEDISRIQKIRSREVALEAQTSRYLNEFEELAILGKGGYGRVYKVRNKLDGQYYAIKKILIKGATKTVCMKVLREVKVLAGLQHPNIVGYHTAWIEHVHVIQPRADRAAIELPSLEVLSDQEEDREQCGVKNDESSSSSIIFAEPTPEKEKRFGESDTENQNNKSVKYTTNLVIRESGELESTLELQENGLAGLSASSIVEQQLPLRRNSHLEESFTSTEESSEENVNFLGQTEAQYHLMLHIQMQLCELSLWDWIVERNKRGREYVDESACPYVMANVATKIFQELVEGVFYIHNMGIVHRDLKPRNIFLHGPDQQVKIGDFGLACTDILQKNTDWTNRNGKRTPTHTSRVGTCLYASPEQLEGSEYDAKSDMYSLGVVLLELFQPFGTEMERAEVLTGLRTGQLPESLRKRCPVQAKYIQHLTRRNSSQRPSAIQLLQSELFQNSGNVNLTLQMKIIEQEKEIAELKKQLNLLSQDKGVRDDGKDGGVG
Method in brief: as §1

CaMKI(h) = target: T5, CaMKI(h) (Homo sapiens, UniProt Q14012)
T5 construct: gene CAMK1
T5 sequence (Q14012 whole entry): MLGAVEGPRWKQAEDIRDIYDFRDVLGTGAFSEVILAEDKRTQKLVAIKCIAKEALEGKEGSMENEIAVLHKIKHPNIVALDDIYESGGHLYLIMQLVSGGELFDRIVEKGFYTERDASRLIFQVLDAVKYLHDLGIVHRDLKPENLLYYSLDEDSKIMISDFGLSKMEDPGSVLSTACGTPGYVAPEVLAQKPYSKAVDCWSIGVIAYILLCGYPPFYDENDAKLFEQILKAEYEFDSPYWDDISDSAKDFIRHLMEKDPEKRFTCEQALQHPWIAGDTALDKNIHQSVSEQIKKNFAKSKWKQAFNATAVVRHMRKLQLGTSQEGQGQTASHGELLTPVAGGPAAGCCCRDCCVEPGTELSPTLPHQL
Method in brief: as §1

[1] = read-out: Residual activity (%) Spautin-1 5aa
[2] = read-out: Residual activity (%) 5as
[3] = read-out: Residual activity (%) 5at
[4] = read-out: Residual activity (%) 5ay

Fc1ccc(CNc2ncnc3ccc(F)cc23)cc1 [5aa, 6-Fluoro-N-(4-fluorobenzyl)-4-Quinazolinamine]
remaining activity at 10 µM (SGK(h); [1]): 82% | remaining activity at 10 µM (CDK14/cyclinY(h); [1]): 107% | remaining activity at 10 µM (ULK1(h); [1]): 99% | remaining activity at 10 µM (ULK3(h); [1]): 96% | remaining activity at 10 µM (FGFR3(h); [1]): 97% | remaining activity at 10 µM (HRI(h); [1]): 96% | remaining activity at 10 µM (CaMKI(h); [1]): 90%

Fc1ccc(CCNc2ncnc3ccc(F)cc23)cc1 [5as, 6-Fluoro-N-[2-(4-Fluorophenyl)Ethyl]-4-Quinazolinamine]
remaining activity at 10 µM (SGK(h); [2]): 86% | remaining activity at 10 µM (CDK14/cyclinY(h); [2]): 103% | remaining activity at 10 µM (ULK1(h); [2]): 91% | remaining activity at 10 µM (ULK3(h); [2]): 92% | remaining activity at 10 µM (FGFR3(h); [2]): 108% | remaining activity at 10 µM (HRI(h); [2]): 99% | remaining activity at 10 µM (CaMKI(h); [2]): 60%

Fc1ccc2ncnc(NCCc3ccc(Cl)cc3)c2c1 [5at, N-[2-(4-Chlorophenyl)Ethyl]-6-Fluoro-4-Quinazolinamine]
remaining activity at 10 µM (SGK(h); [3]): 92% | remaining activity at 10 µM (CDK14/cyclinY(h); [3]): 109% | remaining activity at 10 µM (ULK1(h); [3]): 84% | remaining activity at 10 µM (ULK3(h); [3]): 93% | remaining activity at 10 µM (FGFR3(h); [3]): 99% | remaining activity at 10 µM (HRI(h); [3]): 101% | remaining activity at 10 µM (CaMKI(h); [3]): 104%

COc1ccc2ncnc(Nc3cccc(F)c3)c2c1 [5ay, N-(3-Fluorophenyl)-6-Methoxy-4-Quinazolinamine]
remaining activity at 10 µM (SGK(h); [4]): 82% | remaining activity at 10 µM (CDK14/cyclinY(h); [4]): 93% | remaining activity at 10 µM (ULK1(h); [4]): 93% | remaining activity at 10 µM (ULK3(h); [4]): 90% | remaining activity at 10 µM (FGFR3(h); [4]): 94% | remaining activity at 10 µM (HRI(h); [4]): 99% | remaining activity at 10 µM (CaMKI(h); [4]): 93%
